Results as given in the NIST ThermoML archive (doi:10.1016/j.jct.2016.06.023).

Assay: mn = molality of the nth substance listed, in mol/kg
Conditions: 101.3 kPa, Liquid, Vibrating tube method

O=C(O)CC(=O)O [propanedioic acid] + O
mass density [kg/m3]
Conditions | 313.15 K | 318.15 K | 323.15 K | 328.15 K | 333.15 K | 338.15 K | 343.15 K
m1 = 0.01001 | 992.67 | 990.67 | 988.48 | 986.12 | 983.63 | 980.99 | 978.22
m1 = 0.02001 | 993.03 | 991.04 | 988.85 | 986.5 | 984.01 | 981.37 | 978.59
m1 = 0.03 | 993.37 | 991.39 | 989.19 | 986.83 | 984.34 | 981.69 | 978.9
m1 = 0.03962 | 993.74 | 991.75 | 989.54 | 987.17 | 984.68 | 982.03 | 979.24
m1 = 0.04998 | 994.12 | 992.09 | 989.92 | 987.55 | 985.05 | 982.41 | 979.6
m1 = 0.05936 | 994.45 | 992.44 | 990.24 | 987.86 | 985.36 | 982.72 | 979.92
m1 = 0.06926 | 994.8 | 992.8 | 990.58 | 988.21 | 985.69 | 983 | 980.22
m1 = 0.07949 | 995.16 | 993.16 | 990.94 | 988.56 | 986.05 | 983.39 | 980.58
m1 = 0.08906 | 995.51 | 993.49 | 991.26 | 988.89 | 986.37 | 983.68 | 980.9
m1 = 0.09935 | 995.86 | 993.83 | 991.63 | 989.26 | 986.72 | 984.02 | 981.18
m1 = 0.1984 | 999.32 | 997.27 | 995 | 992.58 | 990.02 | 987.31 | 984.49
m1 = 0.2977 | 1002.76 | 1000.66 | 998.36 | 995.89 | 993.31 | 990.55 | 987.71
m1 = 0.404 | 1006.4 | 1004.17 | 1001.82 | 999.32 | 996.78 | 993.95 | 991.05
m1 = 0.5055 | 1009.9 | 1007.57 | 1005.17 | 1002.63 | 999.91 | 997.16 | 994.29
m1 = 0.6055 | 1013.17 | 1010.78 | 1008.36 | 1005.78 | 1003.1 | 1000.24 | 997.39
m1 = 0.6936 | 1016.02 | 1013.61 | 1011.15 | 1008.54 | 1005.81 | 1002.93 | 1000.21
m1 = 0.7926 | 1019.25 | 1016.73 | 1014.23 | 1011.64 | 1008.99 | 1006 | 1002.97
m1 = 0.891 | 1022.41 | 1019.67 | 1017.35 | 1014.68 | 1011.89 | 1008.94 | 1005.93
m1 = 0.9895 | 1025.39 | 1022.8 | 1020.22 | 1017.49 | 1014.63 | 1011.16 | 1008.49
